Here are results for five compounds from patent US20110207926A1, “NOVEL DIHYDROTRIAZINE DERIVATIVE” (HAMARI CHEMICALS, LTD., priority 2008, published 2011).

Molecules are shown by their SMILES. Read-outs that look alike come from different tables or passages of the source.

The term MBC denotes the smallest concentration meeting the test's criterion for killing.

Data set [1] in a line: Water solubility test (Japanese Pharmacopoeia solubility test method). Type of data set: physicochemical. The conditions noted are these: 20±5° C., dissolution in 30 min; for evaluation (water solubility): criteria of Table 9. How it is done:
According to the Japanese Pharmacopoeia solubility test method, the compounds of Examples 1 and 7 of the present invention and the corresponding N-methyl unsubstituted compounds were examined for water solubility. To be specific, a test substance was powderized, placed in water and the mixture was vigorously shaken for 30 sec every 5 min at 20±5° C. The solubility was evaluated based on the degree of dissolution in 30 min by reference to the following Table 9.

The next data set has as its system E. coli ATCC 25922. The experiment in a line: Bactericidal activity test (MBC measurement). The conditions noted are these: Escherichia coli, read-out: MBC. The class given is cell-based, Escherichia coli. How it is done:
(§1) Each strain was cultured in Trypticase Soy agar medium for 18 to 20 hr, suspended in 0.1% peptone saline, and prepared to OD 600 nm, 1.0 McFarland. The suspension was further diluted with 0.1% peptone saline to give a test bacteria solution (targeted value; 2×10^7 CFU/mL).
(§2) At 0.5, 1 and 3 min from the start of the reaction, a part of the reaction mixture was sampled and mixed with an equal amount of a neutralizing agent (10% Tween 80, 3% lecithin/aqueous solution) to terminate the bactericidal reaction. The reaction mixture was inoculated to a 96 well microplate dispensed with 180 μL of Tripticase Soy liquid medium in advance, and statically cultured at 37° C. for 20 to 24 hr. Thereafter, the presence or absence of growth was visually evaluated, and the minimum concentration at which growth was not observed was taken as the minimal bactericidal concentration (MBC value) of each action time. The numerical values in the Tables show MBC, the unit is μg/mL, S. aureus means Staphylococcus aureus, MRSA means methicillin-resistant Staphylococcus aureus, E. coli means Escherichia coli, and P. aeruginosa means Pseudomonas aeruginosa.

Another data set concerns MRSA ATCC 33591. Kind of data set: Bactericidal activity test (MBC measurement). Type of data set: cell-based, methicillin-resistant Staphylococcus aureus. Conditions: Staphylococcus aureus, read-out: MBC. How it is done: as §1, §2
The subject of a further data set is P. aeruginosa ATCC 27853. Kind of data set: Bactericidal activity test (MBC measurement). The class given is cell-based, Pseudomonas aeruginosa. Conditions: Pseudomonas aeruginosa, read-out: MBC. The method, then: as §1, §2
Another data set concerns P. aeruginosa PAO-1. Kind of data set: Bactericidal activity test (MBC measurement). Type of data set: cell-based, Pseudomonas aeruginosa. Conditions: Pseudomonas aeruginosa, read-out: MBC. How it is done:
as §1, §2

In a further data set the test system is S. aureus ATCC 6538. Kind of data set: Bactericidal activity test (MBC measurement). The class given is cell-based, Staphylococcus aureus. The conditions noted are these: Staphylococcus aureus, read-out: MBC. How it is done: as §1, §2
The mark [2] stands for this setting: ATCC25922, 0.5 min, E. coli ATCC 25922, action time 0.5 min.
Where [3] appears, read: ATCC25922, 1 min, E. coli ATCC 25922, action time 1 min.
Setting [4] is: ATCC25922, 0.05 h, E. coli ATCC 25922, action time 3 min.
[5] abbreviates: 0.5 min, MRSA ATCC 33591, action time 0.5 min.
[6] abbreviates: 1 min, MRSA ATCC 33591, action time 1 min.
Where [7] appears, read: 0.05 h, MRSA ATCC 33591, action time 3 min.
Where [8] appears, read: ATCC27853, 0.5 min, P. aeruginosa ATCC 27853, action time 0.5 min.
Where [9] appears, read: ATCC27853, 1 min, P. aeruginosa ATCC 27853, action time 1 min.
Where [10] appears, read: ATCC27853, 0.05 h, P. aeruginosa ATCC 27853, action time 3 min.
Where [11] appears, read: PAO1, 0.5 min, P. aeruginosa PAO-1, action time 0.5 min.
The mark [12] stands for this setting: PAO1, 1 min, P. aeruginosa PAO-1, action time 1 min.
The mark [13] stands for this setting: PAO1, 0.05 h, P. aeruginosa PAO-1, action time 3 min.
Where [14] appears, read: ATCC6538, 0.5 min, S. aureus ATCC 6538, action time 0.5 min.
The mark [15] stands for this setting: ATCC6538, 1 min, S. aureus ATCC 6538, action time 1 min.
Where [16] appears, read: ATCC6538, 0.05 h, S. aureus ATCC 6538, action time 3 min.

With `CCCCCCCCNC1=NC(C)(C)NC(NCc2ccc(Cl)cc2)=N1` [Comp. Ex. 1, reference compound], in data set [1], the “water (mL) to dissolve 1 g” value was found to be 110 mL and the “evaluation (water solubility)” value was “slightly soluble (not less than 100 mL less than 1,000 mL)”.

Regarding `CCCCCCCCNC1=NC(C)(C)NC(NCc2ccc(C)cc2)=N1` [Comp. Ex. 2, reference compound], in data set [1], the “water (mL) to dissolve 1 g” value is 50 mL and the “evaluation (water solubility)” value is given as “sparingly soluble (not less than 30 mL less than 100 mL)”.

As to `CCCCCCCCN(C)C1=NC(C)(C)NC(NCc2ccc(Cl)cc2)=N1` [Example 1, N^4-octyl-N^4-methyl-1,6-dihydro-6,6-dimethyl-N^2— (4-chlorobenzyl)-1,3,5-triazine-2,4-diamine acetate], the MBC stood at 12.5 µg/mL in the data set with E. coli ATCC 25922 (setting [2]); 12.5 µg/mL in the data set on E. coli ATCC 25922 (setting [3]); 12.5 µg/mL with E. coli ATCC 25922 (setting [4]); 50 µg/mL in the data set with MRSA ATCC 33591 (setting [5]); 25 µg/mL with MRSA ATCC 33591 (setting [6]); 12.5 µg/mL in the data set with MRSA ATCC 33591 (setting [7]). Further, the MBC in the data set on P. aeruginosa ATCC 27853 (setting [8]), in the data set on P. aeruginosa ATCC 27853 (setting [9]), in the data set on P. aeruginosa ATCC 27853 (setting [10]), in the data set on P. aeruginosa PAO-1 (setting [11]), with P. aeruginosa PAO-1 (setting [12]) and in the data set with P. aeruginosa PAO-1 (setting [13]) was 12.5 µg/mL throughout. The results for the MBC in the data set with S. aureus ATCC 6538 (setting [14]), in the data set with S. aureus ATCC 6538 (setting [15]) and in the data set on S. aureus ATCC 6538 (setting [16]) were 50 µg/mL, 12 µg/mL and 6.25 µg/mL, respectively. Moreover, in data set [1], the “water (mL) to dissolve 1 g” value is less than 0.5 mL. For the same compound, in data set [1], the “evaluation (water solubility)” value is “very soluble (less than 1 mL)”.

For the compound `CC(=O)O.CCCCCCCCN(C)C1=NC(C)(C)NC(NCc2ccc(Cl)c(Cl)c2)=N1` [Example 2, N^4-octyl-N^4-methyl-1,6-dihydro-6,6-dimethyl-N^2— (3,4-dichlorobenzyl)-1,3,5-triazine-2,4-diamine acetate], the MBC amounted to 12.5 µg/mL with E. coli ATCC 25922 (setting [2]); 6.25 µg/mL in the data set on E. coli ATCC 25922 (setting [3]); 6.25 µg/mL in the data set on E. coli ATCC 25922 (setting [4]); 25 µg/mL in the data set on MRSA ATCC 33591 (setting [5]); 25 µg/mL in the data set with MRSA ATCC 33591 (setting [6]); 12.5 µg/mL with MRSA ATCC 33591 (setting [7]). Further, the minimum bactericidal concentration (MBC) in the data set with P. aeruginosa ATCC 27853 (setting [8]) stood at 25 µg/mL; in the data set on P. aeruginosa ATCC 27853 (setting [9]) it was 25 µg/mL; in the data set on P. aeruginosa ATCC 27853 (setting [10]), 12.5 µg/mL; with P. aeruginosa PAO-1 (setting [11]) it was 25 µg/mL; in the data set on P. aeruginosa PAO-1 (setting [12]), 25 µg/mL; in the data set with P. aeruginosa PAO-1 (setting [13]) it was 12.5 µg/mL. Further, the MBC in the data set with S. aureus ATCC 6538 (setting [14]) was 25 µg/mL; in the data set on S. aureus ATCC 6538 (setting [15]), 25 µg/mL; in the data set with S. aureus ATCC 6538 (setting [16]) it was 12.5 µg/mL.

On to `CC(=O)O.CCCCCCCCCNC1=NC(C)(C)NC(N(C)Cc2ccccc2)=N1` [Example 4, 1,6-dihydro-6,6-dimethyl-N^4-nonyl-N^2-benzyl-N^2-methyl-1,3,5-triazine-2,4-diamine acetate], for which the MBC in the data set with E. coli ATCC 25922 (setting [2]) was 12.5 µg/mL; with MRSA ATCC 33591 (setting [5]), 25 µg/mL; in the data set with P. aeruginosa ATCC 27853 (setting [8]) it was 25 µg/mL; in the data set on P. aeruginosa PAO-1 (setting [11]) it was 25 µg/mL; with S. aureus ATCC 6538 (setting [14]), 100 µg/mL.
